Assay results as given in PubChem BioAssay AID248 (DTP/NCI, 2004).
Where “and” joins values, the source holds several entries; their conditions need not be identical. Identical values can stand only once. Toxic doses and inconclusive results are not listed. Rule as the data show it: active = T/C of 150% or more; inactive = T/C below 125%.

Test system: L1210 leukemia ip in BDF1 mice, survival T/C
Test: NCI In Vivo Anticancer Drug Screen. Data for tumor model L1210 Leukemia (intraperitoneal) in B6D2F1 (BDF1) mice
Details: endpoint: mean survival time, higher = longer survival
Method in brief: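 In this screen, tumor-bearing mice given compound are compared to those given vehicle, and their survival values are reported as a treated-to-control quotient.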

[1] = dose: 100.0 mg/kg/injection, schedule: Q04DX002 (ip), vehicle: saline with Tween-80
[2] = dose: 200.0 mg/kg/injection, schedule: Q04DX002 (ip), vehicle: saline with Tween-80
[3] = dose: 400.0 mg/kg/injection, schedule: Q04DX002 (ip), vehicle: saline with Tween-80
[4] = dose: 25.0 mg/kg/injection, schedule: Q01DX009 (ip), vehicle: saline
[5] = dose: 50.0 mg/kg/injection, schedule: Q01DX009 (ip), vehicle: saline
[6] = dose: 100.0 mg/kg/injection, schedule: Q01DX009 (ip), vehicle: saline
[7] = dose: 100.0 mg/kg/injection, schedule: Q04DX002 (ip), vehicle: saline
[8] = dose: 100.0 mg/kg/injection, schedule: Q04DX003 (ip), vehicle: saline
[9] = dose: 200.0 mg/kg/injection, schedule: Q01DX009 (ip), vehicle: saline
[10] = dose: 200.0 mg/kg/injection, schedule: Q04DX003 (ip), vehicle: saline
[11] = dose: 400.0 mg/kg/injection, schedule: Q04DX003 (ip), vehicle: saline

Measured: T/C

COc1cccc(OC#N)c1OC
inactive: dose: 12.5 mg/kg/injection, schedule: Q01DX001 (ip), vehicle: Klucel (hydroxypropylcellulose) (HPC) 93 % of control | dose: 12.5 mg/kg/injection, schedule: Q01DX009 (ip), vehicle: Klucel (hydroxypropylcellulose) (HPC) 95 % of control | dose: 12.5 mg/kg/injection, schedule: Q04DX003 (ip), vehicle: Klucel (hydroxypropylcellulose) (HPC) 96 % of control | dose: 25.0 mg/kg/injection, schedule: Q01DX001 (ip), vehicle: Klucel (hydroxypropylcellulose) (HPC) 98 % of control | dose: 25.0 mg/kg/injection, schedule: Q01DX009 (ip), vehicle: Klucel (hydroxypropylcellulose) (HPC) 97 % of control | dose: 25.0 mg/kg/injection, schedule: Q04DX003 (ip), vehicle: Klucel (hydroxypropylcellulose) (HPC) 104 % of control | dose: 50.0 mg/kg/injection, schedule: Q01DX001 (ip), vehicle: Klucel (hydroxypropylcellulose) (HPC) 93 % of control | dose: 50.0 mg/kg/injection, schedule: Q04DX003 (ip), vehicle: Klucel (hydroxypropylcellulose) (HPC) 94 % of control

CC/C(=C(/CC)c1ccc(OP(=O)(O)O)cc1)c1ccc(OP(=O)(O)O)cc1
inactive: dose: 100.0 mg/kg/injection, schedule: Q01DX001 (ip), vehicle: carboxymethylcellulose (CMC) 108 % of control | dose: 100.0 mg/kg/injection, schedule: Q01DX001 (ip), vehicle: water 101 % of control | dose: 100.0 mg/kg/injection, schedule: Q04DX003 (sc), vehicle: olive oil, sesame oil, peanut oil 103 % of control | dose: 200.0 mg/kg/injection, schedule: Q01DX001 (ip), vehicle: carboxymethylcellulose (CMC) 95 % of control | dose: 200.0 mg/kg/injection, schedule: Q01DX001 (ip), vehicle: water 97 % of control | dose: 200.0 mg/kg/injection, schedule: Q04DX003 (sc), vehicle: olive oil, sesame oil, peanut oil 102 % of control | dose: 400.0 mg/kg/injection, schedule: Q01DX001 (ip), vehicle: carboxymethylcellulose (CMC) 106 % of control | dose: 400.0 mg/kg/injection, schedule: Q01DX001 (ip), vehicle: water 98 % of control | dose: 400.0 mg/kg/injection, schedule: Q04DX003 (sc), vehicle: olive oil, sesame oil, peanut oil 107 % of control

O=[N+]([O-])c1ccc(Cc2ccccc2)cc1 (tested in a mixture with another compound)
inactive: [1] 101 % of control | [2] 101 % of control | [3] 97 % of control

CC(C)CC(=O)CC(O)C(Cl)(Cl)Cl (configuration not stated)
inactive: dose: 50.0 mg/kg/injection, schedule: Q04DX002 (ip), vehicle: Klucel (hydroxypropylcellulose) (HPC) 104 % of control | dose: 100.0 mg/kg/injection, schedule: Q04DX002 (ip), vehicle: Klucel (hydroxypropylcellulose) (HPC) 93 % of control | dose: 200.0 mg/kg/injection, schedule: Q04DX002 (ip), vehicle: Klucel (hydroxypropylcellulose) (HPC) 93 % of control | dose: 400.0 mg/kg/injection, schedule: Q04DX002 (ip), vehicle: Klucel (hydroxypropylcellulose) (HPC) 101 % of control

O=C(CCl)Nc1ccc(CCN2C(=O)CC(c3ccccc3)C2=O)cc1 (configuration not stated)
inactive: [1] 93 % of control | [2] 97 % of control | [3] 89 % of control

Cc1ccc(S(=O)(=O)O)cc1
inactive: dose: 12.5 mg/kg/injection, schedule: Q01DX009 (ip), vehicle: saline 101 % of control | [4] 98 % of control | [5] 98 % of control | [6] 97 % of control | [7] 97 % of control | [8] 102 % of control | [9] 96 % of control | dose: 200.0 mg/kg/injection, schedule: Q04DX002 (ip), vehicle: saline 101 % of control | dose: 400.0 mg/kg/injection, schedule: Q04DX002 (ip), vehicle: saline 108 % of control

CCOP(=O)(NCCCOC)OCC
inactive: dose: 0.78 mg/kg/injection, schedule: Q01DX009 (ip), vehicle: acetone 96 % of control | dose: 1.56 mg/kg/injection, schedule: Q01DX009 (ip), vehicle: acetone 100 % of control | dose: 3.12 mg/kg/injection, schedule: Q01DX009 (ip), vehicle: acetone 91 % of control | dose: 3.12 mg/kg/injection, schedule: Q04DX003 (ip), vehicle: saline 93 % of control | dose: 4.6 mg/kg/injection, schedule: Q01DX009 (ip), vehicle: saline 95 % of control | dose: 7.0 mg/kg/injection, schedule: Q01DX009 (ip), vehicle: saline 98 % of control | dose: 10.5 mg/kg/injection, schedule: Q01DX009 (ip), vehicle: saline 95 % of control | dose: 12.5 mg/kg/injection, schedule: Q01DX001 (ip), vehicle: acetone 94 % of control | dose: 15.0 mg/kg/injection, schedule: Q01DX009 (ip), vehicle: acetone 94 % of control | dose: 23.0 mg/kg/injection, schedule: Q01DX009 (ip), vehicle: acetone 94 % of control

CC(=O)[C@H]1CC[C@H]2[C@@H]3CC[C@@H]4C[C@@H](O)CC[C@]4(C)[C@H]3CC[C@]12C
inactive: [1] 97 % of control | [2] 100 % of control | [3] 90 % of control

C=CCC1(CCC)C(=O)NC(=O)NC1=O
inactive: [4] 100 % of control | [5] 112 % of control | [6] 100 % of control | dose: 100.0 mg/kg/injection, schedule: Q04DX003 (ip), vehicle: Klucel (hydroxypropylcellulose) (HPC) 92 % of control

CCOC(=O)C(C)(OCC)OCC
inactive: [6] 103 % of control | dose: 100.0 mg/kg/injection, schedule: Q01DX009 (ip), vehicle: water 100 % of control | [8] 109 % of control | dose: 100.0 mg/kg/injection, schedule: Q04DX003 (ip), vehicle: water 97 % of control | [9] 96 % of control | dose: 200.0 mg/kg/injection, schedule: Q01DX009 (ip), vehicle: water 100 % of control | [10] 96 % of control | dose: 200.0 mg/kg/injection, schedule: Q04DX003 (ip), vehicle: water 101 % of control | dose: 400.0 mg/kg/injection, schedule: Q01DX009 (ip), vehicle: saline 88 % of control | dose: 400.0 mg/kg/injection, schedule: Q01DX009 (ip), vehicle: water 91 % of control | [11] 102 % of control | dose: 400.0 mg/kg/injection, schedule: Q04DX003 (ip), vehicle: water 97 % of control

C1CCC(C2CCCC2)C1
inactive: [1] 100 % of control | [2] 89 % of control | [3] 110 % of control

CCCCOP(=O)(c1ccccc1)N1CCCCC1 (configuration not stated)
inactive: dose: 25.0 mg/kg/injection, schedule: Q04DX002 (ip), vehicle: saline with Tween-80 103 % of control | dose: 50.0 mg/kg/injection, schedule: Q04DX002 (ip), vehicle: saline with Tween-80 103 % of control | [1] 92 % of control and 107 % of control

CCOP(=S)(NCCCOC)OCC
inactive: dose: 100.0 mg/kg/injection, schedule: Q01DX001 (ip), vehicle: other 94 % of control | dose: 100.0 mg/kg/injection, schedule: Q01DX009 (ip), vehicle: other 92 % of control | dose: 100.0 mg/kg/injection, schedule: Q04DX003 (ip), vehicle: other 87 % of control | dose: 200.0 mg/kg/injection, schedule: Q01DX001 (ip), vehicle: other 93 % of control | dose: 200.0 mg/kg/injection, schedule: Q01DX009 (ip), vehicle: other 93 % of control | dose: 200.0 mg/kg/injection, schedule: Q04DX003 (ip), vehicle: other 92 % of control | dose: 400.0 mg/kg/injection, schedule: Q01DX001 (ip), vehicle: other 98 % of control | dose: 400.0 mg/kg/injection, schedule: Q01DX009 (ip), vehicle: other 88 % of control | dose: 400.0 mg/kg/injection, schedule: Q04DX003 (ip), vehicle: other 93 % of control

O=c1oc2c(-c3ccccc3)cccc2c(O)c1-c1ccccc1
inactive: dose: 25.0 mg/kg/injection, schedule: Q04DX003 (ip), vehicle: saline with Tween-80 96 % of control | dose: 50.0 mg/kg/injection, schedule: Q04DX003 (ip), vehicle: saline with Tween-80 101 % of control | dose: 100.0 mg/kg/injection, schedule: Q04DX003 (ip), vehicle: saline with Tween-80 93 % of control | [8] 95 % of control | [10] 93 % of control | [11] 93 % of control

COc1ccc(C(=O)C2=CC(=O)C(=O)C2)cc1OC
inactive: dose: 100.0 mg/kg/injection, schedule: Q01DX001 (ip), vehicle: saline 98 % of control | dose: 200.0 mg/kg/injection, schedule: Q01DX001 (ip), vehicle: saline 98 % of control | dose: 400.0 mg/kg/injection, schedule: Q01DX001 (ip), vehicle: saline 94 % of control

O=C1OCC/C1=C\CCCCCCCCC1CO1 (configuration not stated)
inactive: dose: 25.0 mg/kg/injection, schedule: Q04DX002 (ip), vehicle: saline 94 % of control | dose: 50.0 mg/kg/injection, schedule: Q04DX002 (ip), vehicle: saline 102 % of control | [7] 94 % of control and 101 % of control
